Results taken from patent publication EP3299021A1 (priority 2016, dated 2018).
Like-named read-outs stand apart in the source and are kept apart here.

Legend:
mitochondria = settings: low dose STS, 1 h after reperfusion (Fig. 5a)
Description: The analysis of the ultra-structure of the tissue was performed by TEM. Therefore, the liver had to be perfused with 4 ml/min for 2 min with warm, oxygenated KBH to wash out all blood as described in section 3.4. Afterward, the liver was perfused with fixation buffer pH 7.4 (4 % paraformaldehyde, 2.5 % glutaraldehyde, 0.1 M sodium cacodylate) for 4 min. After the fixation, the liver was removed and cut into 1-2 mm slices. These slides were incubated overnight in the fixation buffer at 4 °C. Subsequently, the slices were cut into cubes and stored in 0.1 M cacodylate buffer.
The samples were embedded in Araldite resin (Piano, Wetzlar, Germany) according to manufacturer's instruction. Semithin sections (1 µm) were stained with Richardson's methylene blue to get a general overview. The areas of the samples were then further trimmed down to 500 x 500 µm. Ultra-thin sections of 80 nm thickness were cut using the ultramicrotome Ultracut E (Reichert-Jung, Wien, Austria). Finally, sections were investigated using a transmission electron microscope EM900 (Zeiss).

hepatic IRI [1] = test system: hepatic IRI
Description: The mice were imported by embryonic transfer into the animal facility of the Jena University Hospital and conducted under pathogen free conditions. The original mixed Sv129/C57 background was backcrossed to a 99 % C57BL/6 background. In all experiments male WT and Cse^-/- mice between 10 and 12 weeks were used for a standardised hepatic IRI model. […] Body temperature was maintained with a heating plate. During the actual experiment, ischemia was induced in the left lateral lobe of the liver by clamping the hepatic artery and the portal vein using a microaneurysm clamp (FST, Heidelberg, Germany). This procedure results in a segmental (30 %) ischemia. After 1 h, the clamp was removed to initiate the reperfusion. The reperfusion time points were set to 1 h or 24 h. Subsequently, the mice were sacrificed and both, plasma and organs, were harvested. During deep isoflurane (Forene®, Abb-Vie Deutschland GmbH & Co. KG, Ludwigshafen, Germany) anaesthesia, the blood was collected and plasma was generated. Next, the liver, the kidney and the spleen were removed and washed with saline.
The analysis of the ultra-structure of the tissue was performed by TEM. Therefore, the liver had to be perfused with 4 ml/min for 2 min with warm, oxygenated KBH to wash out all blood as described in section 3.4. […]

[2] = test system: mitochondrial respiration chain; type: biochemical, mouse
Description: The mitochondrial integrity and function was analysed by measuring the oxygen consumption of the different complexes in the mitochondrial respiration chain. Therefore, the isolation and oxygen consumption of the mitochondria were based on the protocol of Frezza et al. (Organelle isolation: functional mitochondria from mouse liver, muscle and cultured fibroblasts. Nat Protoc, 2 (2): 287-295, 2007.) with some modifications. All chemicals and kits were supplied by Sigma Aldrich, Germany.
The oxygen consumption was measured by a microcathode oxygen electrode (S1782, Strathkelvin Instruments, Great Britain). The electrodes were calibrated according to the manufacturer's protocol. Mitochondria (1 mg protein) were suspended in 1 ml experimental buffer ([…], 10 mM Tris/MOPS, 40 mM EGTA/Tris 4, […]). As a substrate of complexes II, III and IV, 5 mM succinate was added. The main read out is the "respiratory control ratio (RCR)" that can be calculated by the ratio of "state 3" and "state 4" respiration, which is equivalent to the ratio of ADP-dependent respiration and ADP-independent respiration. […] If the ADP was consumed completely, the slope of the oxygen consumption ("state 4" respiration) looked similar to the "state 2" slope.

TOM20 = settings: for TOM20 signal: immunofluorescence, without STS 258, healthy control 672
Description: In addition to autophagy marker proteins, the translocase of the mitochondrial outer membrane 20 (TOM20) was analysed. […] To detect a possible specific loss of TOM20 in liver cells, immunofluorescence staining was carried out.
Finally, the liver tissue samples were stored for histological and molecular biological analysis.
The total protein content was isolated from the frozen tissue samples by an protein isolation buffer pH 7.5 (10 mM Tris, 250 mM saccharose, 1 mM EDTA, 1 % phosphatase-inhibitor, 1 % protease-inhibitor). To keep organelles and membranes as intact as possible, a tightly fitting Dounce homogenizer (Kimble Chase, Mexico) was used resulting in a mild and mechanical homogenisation. Afterward, the homogenate was centrifuged at 900 x rcf for 10 min at 4 °C. The protein content in the post nucleus supernatant was determined using the BCA assay (Sigma Aldrich, Hamburg, Germany). In addition, the samples were incubated for 15 min at room temperature with Laemmli sample buffer to denature the protein structure.
Afterward, the proteins were separated by size using 4-12 % SDS-gels (NuPAGE® Bis-Tris Gel, Invitrogen, Germany) in a SDS-Gel electrophoresis (XCellSureLock® Mini Gel chamber and NuPAGE®MOPS SDS Running Buffer, Invitrogen, Germany). Subsequently, the proteins were transferred to a PVDF-membrane (Roth, Germany). A blocking solution containing tris-buffered saline and tween 20 (TBST) pH 7.5 (10 mM Tris, 100 mM NaCl, 0.1 % Tween 20) 5 % BSA or skim milk (Sigma-Aldrich, Germany) was used to block unspecific bindings. The membrane was incubated with this solution for 1 h at room temperature. Next, the membrane was incubated with a rabbit polyclonal LC3B antibody (Cell Signaling Technology®, Danvers, USA 1:500 dilution), a rabbit polyclonal TOM20 antibody (Abcam®, Cambridge, UK 1:500 dilution) or a rabbit polyclonal β-actin antibody (Abcam®, Cambridge, UK 1:2,000 dilution) overnight at 4 °C. All primary antibodies were diluted in the blocking solution depending on the manufacture's protocol. After washing the membrane with TBST buffer 3 times, a horseradish peroxidase (HRP)-conjugated secondary antibody (1:5,000) was added for 1 h at room temperature. In the last step, the membrane was washed again with TBST buffer 3 times.
Detection of the secondary antibody by chemiluminescence was performed using HRP substrate (Immobilon Western HRP Substrat, Merck Millipore, USA) by the LAS3000 (GE Healthcare, Frankfurt, Germany). Finally, the target proteins were quantified by densitometric analysis in the software ImageJ (National Institutes of Health, USA). B-actin served as loading control to calculate the differences in the protein expression between the groups.
Immunofluorescence staining was used to investigate the TOM20 localisation. […]

hepatic IRI [3] = settings: medium dose 0.045 g STS/kg BW into tail vein
Description: Intravital microscopy has been used to analyse the early reperfusion injury in WT and Cse^-/- mice. Assay of plasma parameters and histological staining was applied to analyse later IRI. Rhodamine 123 was injected into the tail vein 5 min before the onset of the experiment. […] The mice were monitored for 2 h without IRI in the sham control group.
In all experiments male WT and Cse^-/- mice between 10 and 12 weeks were used for a standardised hepatic IRI model. One week before the experiments started, 100 µl blood was taken from the orbital sinus. Body temperature was maintained with a heating plate. During the actual experiment, ischemia was induced in the left lateral lobe of the liver by clamping the hepatic artery and the portal vein using a microaneurysm clamp (FST, Heidelberg, Germany). This procedure results in a segmental (30 %) ischemia. […]
IVM was conducted to monitor the mitochondrial membrane potential in vivo with confocal laser scanning microscopy. Therefore, the animals remained under deep general anesthesia using isoflurane and pain reflexes were assessed to gauge the depth of anesthesia. […] Rhodamine 123 was excited at 488 nm (Argon/2 laser) and the emitted light was detected by a monochromatic filter at 530 ± 30 nm (GaAsP detector). […] The standard deviation of the Rhodamine 123 fluorescence signal was calculated to quantify the changes of the mitochondrial granularity over time. […]

liver = settings: 1 h ischemia and 1 h reperfusion, all STS doses (Fig. 4b)
Description: To implement the ex vivo IRI model, the liver was perfused via the portal vein with oxygenated Krebs-Henseleit buffer for 5 min one-way and 5 min in reverse. Afterwards, the pump was stopped for 1 h followed by 1 h reperfusion. During reperfusion, tissue samples were collected every 10 min.
The method is based on the reaction of GSH with 5,5'-dithiobis(2-nitrobenzoic acid) (DTNB), whereby 2-nitro-5-mercaptobenzoic acid is cleaved, which then leads to a color change. The frozen liver samples were homogenised in a 0.2 M sodium phosphate buffer (pH 8), containing 0.005 M EDTA, and four volumes of 25 % metaphosphoric acid. Subsequently, the samples were centrifuged at 9000 x rcf for 30 min at 4 °C. The absorbance was read at 412 nm using a Spekol 1100 (Carl Zeiss GmbH, Jena, Germany). A standard curve was performed with GSH.
In addition, the GSSG concentration was assessed fluorometrically (fluorescencespectrophotometer F-2000, Hitachi, Tokio, Japan). […] The fluorescence intensity is proportional to the GSSG concentration. […]
Therefore, a monovascular perfusion of the liver through the portal vein (anterograde perfusion) was carried out. […] During the whole experiment, the pressure within the liver was monitored via a pressure transducer (Biopac®Systems Inc, MP150, CA, USA) to control the physiological pressure of the liver. […]

Substance | mitochondrial structure by transmission electron microscopy (mitochondria) | mitochondrial ultrastructure by transmission electron microscopy (hepatic IRI [1]; Cse-/- mice after IRI with STS treatment (Fig. 8b)) | mitochondrial ultrastructure by transmission electron microscopy (hepatic IRI [1]; WT mice after IRI with STS treatment (Fig. 8b)) | RCR at higher concentrations [2] | mitochondrial respiratory activity [2] | TOM20 levels by Western blot (TOM20; healthy controls vs IRI treated livers vs STS treated groups (Fig. 6a)) | TOM20 signal (TOM20; high dose 0.45 g STS/kg BW) [positive cells per mm^2] | TOM20 signal (TOM20; low dose 0.0045 g STS/kg BW) [positive cells per mm^2] | TOM20 signal (TOM20; medium dose 0.045 g STS/kg BW) [positive cells per mm^2] | mitochondrial granularity (hepatic IRI [3]; WT and Cse-/- mice, end of reperfusion (120 min)) | mitochondrial granularity (hepatic IRI [3]; WT mice, beginning of reperfusion (60 min)) | amount of total glutathione (liver) | decline of RCR induced by tert-BOOH oxidative stress ([2]; 200 µM tert-BOOH + 1 µM NaHS (Fig. 3b)) | mitochondrial respiratory activity ([2]; at low doses (Fig. 3a)) | concentration that induced inhibitory effects on respiratory control ratio (RCR) ([2]; isolated mitochondria, 0-100 µM NaHS, no oxidative stress (Fig. 3a)) [µM]
sodium thiosulfate [STS] | retained their normal structure | electron-dense accumulation | normal mitochondrial architecture | decreased RCR | stimulated mitochondrial respiratory activity | no significant differences | 194 | 305 | 422 | This effect was also detected | pronounced recovery of the mitochondrial granularity | significantly decreased by IRI independently on STS treatment |  |  | 
sodium hydrogen sulphide [NaHS] |  |  |  |  |  |  |  |  |  |  |  |  | compensated the decline of RCR | stimulated mitochondrial respiratory activity | 100
